What follows are compounds tested against T1, Human GPR120 short form (Homo sapiens, UniProt Q5NUL3) (assay: Human GPR120 calcium flux assay, Procedure Calcium A). Settings: HEK-293 cells expressing human GPR120 short form, 2500 cells/well, FLIPR.
T1 construct: expressed in transfected cells
T1 sequence (Q5NUL3 1-361): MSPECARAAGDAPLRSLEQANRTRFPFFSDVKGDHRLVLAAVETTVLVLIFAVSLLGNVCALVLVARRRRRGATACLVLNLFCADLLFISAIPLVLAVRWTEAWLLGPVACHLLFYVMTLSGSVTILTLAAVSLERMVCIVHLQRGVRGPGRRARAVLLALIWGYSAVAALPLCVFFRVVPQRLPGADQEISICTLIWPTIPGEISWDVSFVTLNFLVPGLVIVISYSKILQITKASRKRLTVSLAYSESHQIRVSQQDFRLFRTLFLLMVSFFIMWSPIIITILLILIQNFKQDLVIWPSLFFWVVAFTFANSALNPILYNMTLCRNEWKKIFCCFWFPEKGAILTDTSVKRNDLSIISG
Format: cell-based
How it was run: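 HEK293 cells stably expressing the human GPR120 short splice variant (NM_001195755.1) were seeded at 2500 cells/well, serum-starved 1 h and loaded with Fluo-4 NW plus probenecid. Compounds (100–0.012 μM solutions, 0.2% final DMSO) were added, and FLIPR calcium flux was read for 300 s. EC50 came from a variable-slope fit (Hill <2) of Fmax−Fmin.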

`Cc1c(CCC(=O)O)ccc(OCc2cccn2-c2ccc(Cl)cc2)c1C` [Compound 1, 3-(4-{[1-(4-Chlorophenyl)-1H-pyrrol-2-yl]methoxy}-2,3-dimethylphenyl)propanoic acid] and `CCc1ccc(-n2ccc(C(F)(F)F)c2COc2ccc(CCC(=O)O)c(F)c2F)cc1` [Compound 34, 3-(4-[[1-(4-ethylphenyl)-3-(trifluoromethyl)-1H-pyrrol-2-yl]methoxy]-2,3-difluorophenyl)propanoic acid] are within 1.5-fold of each other in EC50: 0.353 µM for the first, 0.517 µM for the second.

First: OCCCc1ccc(OCc2c(C(F)(F)F)ccn2-c2ccc(Cl)cc2)c(F)c1F [Compound 29, 3-(4-{[1-(4-Chlorophenyl)-3-(trifluoromethyl)-1H-pyrrol-2-yl]methoxy}-2,3-difluorophenyl)propan-1-ol]
Second: Cc1ccc(-n2ccc(C(F)(F)F)c2COc2c(F)cc(CCC(=O)O)cc2F)cc1 [Compound 39, 3-(3,5-difluoro-4-[[1-(4-methylphenyl)-3-(trifluoromethyl)-1H-pyrrol-2-yl]methoxy]phenyl)propanoic acid]
The EC50 of the first is 3.3-fold higher: 1.01 µM for the first, 0.306 µM for the second. The second is the more potent here.

— patent publication US8912227B1, “Bicyclic pyrrole derivatives useful as agonists of GPR120” (Janssen Pharmaceutica NV, priority 2014, dated 2014)
